For series [1] the following is noted: in vivo; cited from earlier work.
A short description of series [2]: cold ethanol tail flick test, dose response and MonoNalbuphine derivative study. Particulars: rats; for maximal analgesic effect found at (dose): intramuscularly injection, Figure 4. Background: Hot-plate and tail-flick tests time the reaction to a heat stimulus.
Description: Each group consisted of 6 rats, and each rat was injected once intramuscularly on the rear leg.
The dose for each rat was 25 micromole per kg, intramuscularly.
The time to stop the experiment was set at 40 seconds to prevent the tail from cold sore. No cold sores were found within 40 sec. Five minutes after the drug was given to the rat, the flick test was performed every 10 minutes or more.
Series [3] in a line: analgesic effect after intramuscular injection to rats, polynalbuphine derivative study. The series is classed as in vivo, Sprague Dawley rats. How it is done: In the experiment, a circulating cold ethanol bath with a temperature maintained at -20°C was set up. After dosing, the rat tail(1/3 from the tip) was immersed in the bath. The latency for the rat to flick its tail from the bath was measured to be the analgesic threshold. The effect of various opium alkaloid preparations can be determined with this test.
The analgesic effect can be calculated as follows: analgesic effect (%) = (flicking time after dosing - flicking time before dosing ) / (test terminated time - flicking time before dosing ) X 100% [formula]
(§1) Six male Sprague Dawley rats (175 to 225 g), and six male guinea pig(200 to 250 g) were used.

Series [4] is described as follows: analgesic effect after intramuscular injection to guinea pigs. Format: in vivo, guinea pig. Conditions: 500 µM/kg and 250 µM/kg, Figure 7.
Source text: as §1

A short description of series [5]: pharmacokinetic study of long acting preparation in Beagle dog. Conditions: in vivo, comparison with sebacoyl dinalbuphine ester, read-out: half life for excretion (converted). Also on record: species or system Beagle dogs.
Series [6] in a line: in vitro release of Nalbuphine from vehicles (dialysis bag, UV). Format: physicochemical. Conditions: Fig. 2, p<0.05.
For series [7] the following is noted: after continuous use for 6 months; cited from earlier work.
Series [8] in a line: half-life of dinalbuphine sebacoyl ester in rat blood, HPLC. Format: in vitro ADME. The procedure: • (a) Dinalbuphine sebacoyl ester(SDN) was dissolved in acetonitrile, the concentration was 7.75 mg/ml. • (b) 250 ml of whole blood was collected from rat administered with the thus formed dinalbuphine sebacoyl ester soft drug, and was added with anticoagulant.
(§2) All blood collections were analyzed by HPLC.

Series [9] can be described thus: half-life of dinalbuphine sebacoyl ester in rabbit blood, HPLC. Format: in vitro ADME. The procedure:
• (a) Dinalbuphine ester sebacoyl ester was dissolved in acetonitrile, the concentration was 5.2 mg/ml. • (b) 150 ml of whole blood was collected from rabbit administered with the thus formed dinalbuphine sebacoyl ester soft drug, and was added with anticoagulant.
as §2

A short description of series [10]: half-life of dinalbuphine sebacoyl ester in dog blood, HPLC. Format: in vitro ADME. How it is done:
• (a) Dinalbuphine sebacoyl ester was dissolved in acetonitrile, the concentration was 12.5 mg/ml. • (b)200 ml of whole blood was collected from dog administered with the thus formed dinalbuphine sebacoyl ester soft drug, and was added with anticoagulant.
as §2

A short description of series [11]: half-life of dinalbuphine sebacoyl ester in human blood, HPLC. Format: in vitro ADME. The procedure:
• (a) Dinalbuphine sebacoyl ester was dissolved in acetonitrile, the concentration was 10 mg/ml. • (b) 250 ml of whole blood was collected from human administered with the thus formed dinalbuphine sebacoyl ester soft drug, and was added with anticoagulant.
as §2

Series [12] in a line: clinical / estimated analgesic duration in humans. Format: in vivo. Conditions: 125 µM/ kg administered to a human body. How it is done: The analgesic effect was extended to 4-5 days, when the dose administered was below 125 µM/kg. […] The same level of analgesic effect for intramuscular injection to rats was required at 15.625 µM/kg(6.165 mg/kg).
Therefore, the analgesic effect is estimated 4-5 days when 125 µM/ kg of sebacoyl dinalbuphine ester is administered to a human body.
The amount of the aforesaid injection was about 10 ml. However, the analgesic effect could not be maintained 4 to 5 days even upon administration of 88 ml of Malbuphine hydrochloride because of metabolism. Besides, such parenteral volume was not ideal for a single dose. This invention made an improvement. By diluting a single dose of sebacoyl dinalbuphine in 7.15 ml sesame oil form, parenteral administration could maintain the analgesic effect 4 to 5 days.

Series [13] can be described thus: pharmacokinetic study of long acting preparation in Beagle dog. The series is classed as in vivo, Beagle dogs. The procedure:
Six Beagle dogs were used. Five Beagle dogs were intramuscularly injected with 30 mg/kg long acting sebacoyl dinalbuphine ester oily parenteral administration respectively, and another one was injected with 100 mg/kg long acting sebacoyl dinalbuphine ester oily parenteral administration. Blood samples were collected through the veins in front limbs of the dogs at 1, 2, 6, 24, 30, 48, 54, 72, 78, 96, 102, 120, 168, 192 hours. […] The relationship between time and concentration was analyzed by PCNONLIN computer program. Two-compartment model and pharmacokinetic parameters were calculated to depict absorption, distribution, metabolism, and excretion of drugs in the dogs.

A word on the half-life: it is how long it takes for the measured level to halve.

Where “and” joins values, the source holds several entries; their conditions need not be identical. Equal values may be shown once. Where a name gives a salt, the structure may show the parent alone.

In the case of `Oc1ccc2c(c1)[C@@]13CCCC[C@@]1(O)[C@@H](C2)N(CC1CCC1)CC3` [Butorphanol], in [1], the “dose needed to elicit the same analgesic effect” value is listed as 2 mg.

Consider `CN1CC[C@]23c4c5ccc(O)c4O[C@H]2[C@@H](O)C=C[C@H]3[C@H]1C5.Cl` [Morphine hydrochloride], for which the “maximal analgesic effect found at (dose)” value in [2] came to 10 mg/kg.

Consider `CN1CC[C@]23c4c5ccc(O)c4O[C@H]2[C@@H](O)C=C[C@H]3[C@H]1C5` [Morphine], for which, in series [1], the “dose needed to elicit the same analgesic effect” value is 10 mg.

Take `Oc1ccc2c3c1O[C@H]1[C@@H](O)CC[C@@]4(O)[C@@H](C2)N(CC2CCC2)CC[C@]314` [Nalbuphine hydrochloride]: the analgesic effects result in [3] (intramuscular injection, 15.625, 62.5, 250 µM/kg, Figure 6) was “significant analgesic effects”; in series [4], “significant analgesic effects”. For the same compound, the half-life in series [5] is ~60 min. In addition, the “maximal analgesic effect found at (dose)” value in series [2] stood at 100 mg/kg.

In the case of `Oc1ccc2c3c1O[C@H]1[C@@H](O)CC[C@@]4(O)[C@@H](C2)N(CC2CCC2)CC[C@]314` [Nalbuphine], the “amount of released Nalbuphine free base” value in series [6] (between 17 and 28 hours) is “less in the preparation with sesame oil than with peanut oil and the phosphate buffer”. Further, the release rate entry in [6] (sesame oil as the vehicle vs the other three preparations, between 1 and 11 hours) was “slowest release rate”. In addition, in [7], the “addiction, synergistic effect and respiratory inhibition” value was “no significant addiction and synergistic effect was found, but only slight respiratory inhibition”. For the same compound, in [2] (25 micromole per kg intramuscularly, in sesame oil, compared with each preparation of MonoNalbuphine derivatives, Fig. 5), the analgesic duration entry was “significantly shorter”.

For `O=C(CCCCCCCCC(=O)Oc1ccc2c3c1O[C@H]1[C@@H](O)CC[C@@]4(O)[C@@H](C2)N(CC2CCC2)CC[C@]314)Oc1ccc2c3c1O[C@H]1[C@@H](O)CC[C@@]4(O)[C@@H](C2)N(CC2CCC2)CC[C@]314` [sebacoyl dinalbuphine ester], the “converted time, which converts 90% dinalbuphine sebacoyl ester(SDN) into Nalbuphine” value in series [8] (rat) worked out at 10 min; in series [9] (rabbit) it was 25 min; in series [10] (dog), 95 min; in series [11] (human) it was 30 min. Also, the half-life in series [8] (rat blood test, read-out: half life) was 2.8 min; in [8] (rat plasma, read-out: Elimination Half-life), 2.8 min; in [8] (rat whole blood, n=3, mean± S.E, read-out: Elimination Half-life), 2.2 ± 0.5 min; in [8] (red blood cells, rat red blood cell, n=3, mean± S.E, read-out: Elimination Half-life) it was 2.3 ± 0.6 min; in series [9] (rabbit blood test, read-out: half life), 7 min; in series [9] (rabbit plasma, n=3, mean± S.E, read-out: Elimination Half-life) it was 6.98 ± 0.03 min. Besides, the half-life is 14.9 ± 1.3 min in series [9] (rabbit whole blood, n=3, mean± S.E, read-out: Elimination Half-life); 26.2 ± 4.8 min in [9] (red blood cells, rabbit red blood cell, n=3, mean± S.E, read-out: Elimination Half-life); 27.8 min in series [10] (dog blood test, read-out: half life); 27.8 ± 0.5 min in [10] (dog plasma, n=3, read-out: Elimination Half-life); 30.5 ± 0.8 min in [10] (dog whole blood, n=3, read-out: Elimination Half-life); 33.4 ± 1.4 min in [10] (red blood cells, dog red blood cell, n=3, read-out: Elimination Half-life). Also, the half-life in series [11] (human blood test, read-out: half life) was 9 min; in series [11] (human plasma, n=3, read-out: Elimination Half-life), 9 ± 0.4 min; in series [11] (human whole blood, n=3, read-out: Elimination Half-life) it was 8.8 ± 0.4 min; in series [11] (red blood cells, human red blood cell, n=3, read-out: Elimination Half-life) it was 7.7 ± 0.4 min. Further, the “50% analgesic effect was extended to” value in [3] (intramuscular injection of 125 µM/kg, Figure 9) was determined as 88 h. Moreover, the analgesic effects entry in series [3] (intramuscular injection, 7.8125, 31.25, 125 µM/kg, Figure 8) is recorded as “proportional to the dose administered”. The “analgesic effect relative to Nalbuphine hydrochloride” value in series [3] (intramuscular, Figure 9) was 8.8 times. In addition, the “analgesic effect was extended to” value in [3] (intramuscular, dose administered below 125 µM/kg) was 4 to 5 days. Besides, the “analgesic effect estimated (duration)” value in series [12] was 4 to 5 days. The MRT in series [13] (Beagle Dog 2, i.m., Dose 24.3 mg/kg) was 78.8 H; in series [13] (Beagle Dog 2, i.m., Dose 81.0 mg/kg), 127.2 H; in series [13] (Beagle dogs, 30 mg/kg i.m. oily injection, Mean of five dogs), 73.2 H; in series [13] (Beagle dogs, 30 mg/kg i.m. oily injection, individual dogs 1-5, listed as SDN, 30 mg/kg) it was 84.3 H and 78.8 H and 61.1 H and 62.7 H and 79.1 H. The “kinetic across two doses” value in series [13] (Beagle dogs, Table 6 vs Table 7) was “linear kinetic”. In addition, in [13] (Beagle dogs, i.m., Figures 10 and 11), the “absorption in injection oil vehicle” value is “zero order”.

The record behind these values is patent publication EP1149836B1, “Polynalbuphine derivatives” (Hu, Oliver Yoa-Pu, priority 2000, dated 2001).
